# In EPA's ToxValDB 9.5:
# Test system: Mus musculus
# Settings: short-term
# [1] = duration: 4 weeks, oral, gavage, M, TNF-alpha mRNA levels in liver (normalized to GAPDH)
# [2] = duration: 4 days, dermal, F, BALB/c, body weight + thymus: thymus: absolute weight
# [3] = duration: 10 days, oral, diet, M, C57BL/6, bone marrow: bone marrow: no. of CD19+ B-lymphoid cells + bone marrow: bone marrow: no. of early mature CD19+CD138-IgM+ B cells + bone …
# [4] = duration: 10 days, oral, diet, M, C57BL/6, serum AH50 + serum C3 + serum CH50
# [5] = duration: 10 days, oral, diet, M, C57BL/6, spleen: spleen: absolute weight + thymus: thymus: absolute weight
# [6] = duration: 10 days, oral, diet, M, C57BL/6, spleen: spleen: relative weight + thymus: thymus: relative weight
structure (smiles),measurement,setting,value
O=C([O-])C(F)(F)C(F)(F)C(F)(F)C(F)(F)C(F)(F)C(F)(F)C(F)(F)F.[NH4+] [Ammonium perfluorooctanoate],NOEL,"duration: 4 weeks, oral, gavage, M, 129S4/SvlmJ, TNF-alpha mRNA levels in liver (normalized to GAPDH)",21.6 mg/kg-day
same,LOEL,[1],10.8 mg/kg-day
same,NOEL,[1],5.39 mg/kg-day
same,NOEL,"duration: 2 days, oral, diet, M, C57BL/6, spleen: spleen: absolute weight + thymus: thymus: absolute weight + thymus: total thymic DNA content",0.02%
same,LOEL,"duration: 2 days, oral, diet, M, C57BL/6, spleen: total splenic DNA content",0.02%
same,NOEL,"duration: 4 days, dermal, F, BALB/c, OVA-specific IgE",1.5%
same,LOEL,"duration: 4 days, dermal, F, BALB/c, PCA passive cutaneous anaphylaxis",10 mg/kg-day
same,LOEL,"duration: 4 days, dermal, F, BALB/c, blood serum: OVA-specific IgE + blood serum: total serum IgE + OVA-specific airway hyperreactivity (AUC) + spleen: spleen B220+ cells + …",1%
same,NOEL,"duration: 4 days, dermal, F, BALB/c, blood serum: OVA-specific IgE + blood serum: total serum IgE + OVA-specific airway hyperreactivity (AUC) + thymus: thymus cellularity + …",0.75%
same,NOEL,"duration: 4 days, dermal, F, BALB/c, blood serum: OVA-specific IgE + spleen: spleen B220+ cells + spleen: spleen: absolute weight + thymus: thymus: absolute weight + total serum…",0.5%
same,LOEL,"duration: 4 days, dermal, F, BALB/c, blood serum: OVA-specific IgE + thymus: thymus: absolute weight + total serum IgE",0.75%
same,LOEL,[2],1.5%
same,NOEL,[2],1%
same,LOEL,"duration: 4 days, dermal, F, BALB/c, spleen: spleen cellularity + spleen: spleen: absolute weight",0.5%
same,LOEL,"duration: 5 days, oral, diet, M, C57BL/6, spleen: spleen: absolute weight + spleen: total splenic DNA content + thymus: thymus: absolute weight + thymus: total thymic DNA content",0.02%
same,LOEL,"duration: 7 days, oral, diet, M, C57BL/6, blood serum: TNF-alpha levels",0.02%
same,LOEL,"duration: 7 days, oral, diet, M, C57BL/6, body weight + spleen: lymphocyte proliferation (ConA) + spleen: lymphocyte proliferation (LPS) + spleen: spleen CD19+ cells + spleen: spleen…",0.02%
same,NOEL,"duration: 7 days, oral, diet, M, C57BL/6, cell cycle of splenocytes: G0/G1 phase + cell cycle of splenocytes: G1/2 phase + cell cycle of splenocytes: G2/M phase",0.02%
same,LOEL,"duration: 7 days, oral, diet, M, C57BL/6, cell cycle of splenocytes: S phase + cell cycle of thymocytes: G0/G1 phase + cell cycle of thymocytes: G1/2 phase + cell cycle of thymocytes…",0.02%
same,LOEL,"duration: 7 days, oral, diet, M, C57BL/6, lymphocyte proliferation in response to ConA (1 day culture) + lymphocyte proliferation in response to ConA (2 day culture) + lymphocyte …",200 mg/kg-day
same,NOEL,"duration: 7 days, oral, diet, M, C57BL/6, spleen: splenocytes in G0/1 phase + splenocytes in G1/2 phase + splenocytes in G2/M phase",200 mg/kg-day
same,LOEL,"duration: 7 days, oral, diet, M, body weight + spleen: spleen CD19+ cells + spleen: spleen CD3+ cells + spleen: spleen cellularity + thymocyte G0/1 phase + thymocyte G1/2 …",0.02%
same,NOEL,"duration: 7 days, oral, diet, M, spleen: lymphocyte proliferation (ConA) + spleen: lymphocyte proliferation (LPS)",0.02%
same,LOEL,"duration: 7 days, oral, gavage, F, BALB/c, Peripheral blood phagocytosis (HEMA) + spleen: lymphocyte proliferation (ConA) + spleen: lymphocyte proliferation (LPS) + Splenic NK cell …",20 mg/kg-day
same,NOEL,"duration: 7 days, oral, gavage, F, BALB/c, spleen: spleen CD4+ cells + spleen: spleen CD49b+ cells + spleen: spleen CD8+ cells + spleen: spleen cellularity + spleen: spleen: relative …",20 mg/kg-day
same,LOEL,"duration: 10 days, oral, diet, M, C57BL/6, IgG1 antibody-secreting cells (HRBC) + IgG1 antibody level (HRBC 1:160) + IgG1 antibody level (HRBC 1:20) + IgG1 antibody level (HRBC 1:80…",0.02%
same,NOEL,"duration: 10 days, oral, diet, M, C57BL/6, IgG3 antibody-secreting cells (HRBC) + IgM antibody-secreting cells (HRBC) + IgM antibody level (HRBC 1:160)",0.02%
same,LOEL,"duration: 10 days, oral, diet, M, C57BL/6, blood serum: IL-6 levels + blood serum: IL-6 levels (+LPS in vivo) + blood serum: TNF-alpha levels (+LPS in vivo) + bone marrow: IL-6 levels…",0.02%
same,NOEL,"duration: 10 days, oral, diet, M, C57BL/6, blood serum: TNF-alpha levels + bone marrow: IL-6 levels + spleen: IL-6 levels",0.02%
same,LOEL,"duration: 10 days, oral, diet, M, C57BL/6, bone marrow: bone marrow cellularity + bone marrow: bone marrow: no. of Gr1+CD11b+ myeloid cells + bone marrow: bone marrow: no. of immature…",0.02%
same,NOEL,"duration: 10 days, oral, diet, M, C57BL/6, bone marrow: bone marrow cellularity + bone marrow: bone marrow: no. of Gr1+CD11b+ myeloid cells + spleen: spleen cellularity + spleen: …",0.002%
same,LOEL,[3],0.002%
same,NOEL,[3],0.001%
same,NOEL,"duration: 10 days, oral, diet, M, C57BL/6, intrahepatic immune cells: all leukocytes (CD45+) + intrahepatic immune cells: B cells (CD19+) + intrahepatic immune cells: CD138 (plasma …",0.002%
same,LOEL,"duration: 10 days, oral, diet, M, C57BL/6, intrahepatic immune cells: all leukocytes (CD45+) + intrahepatic immune cells: B cells (CD19+) + intrahepatic immune cells: cytotoxic T …",0.002%
same,NOEL,"duration: 10 days, oral, diet, M, C57BL/6, liver: IFN-gamma levels (+Con A in vivo) + liver: IL-4 levels (+Con A in vivo) + liver: TNF-alpha levels (+Con A in vivo)",0.002%
same,LOEL,"duration: 10 days, oral, diet, M, C57BL/6, liver: IFN-gamma levels + liver: IL-4 levels + liver: IL-6 levels + liver: IL-6 levels (+Con A in vivo) + liver: TNF-alpha levels",0.002%
same,LOEL,[4],0.02%
same,NOEL,[4],0.01%
same,NOEL,"duration: 10 days, oral, diet, M, C57BL/6, spleen: relative splenic DNA content",0.02%
same,LOEL,"duration: 10 days, oral, diet, M, C57BL/6, spleen: spleen CD19+ cells + spleen: spleen CD3+ cells + spleen: spleen CD4+ cells + spleen: spleen CD8+ cells + spleen: spleen: absolute …",0.02%
same,LOEL,"duration: 10 days, oral, diet, M, C57BL/6, spleen: spleen CD19+ cells + spleen: spleen CD4+ cells + spleen: spleen CD8+ cells + spleen: spleen cellularity + spleen: spleen NK1.1+ …",0.02%
same,LOEL,"duration: 10 days, oral, diet, M, C57BL/6, spleen: spleen: absolute weight + spleen: spleen: relative weight + spleen: total splenic DNA content + thymus: relative thymic DNA content…",0.02%
same,NOEL,"duration: 10 days, oral, diet, M, C57BL/6, spleen: spleen: absolute weight + thymocyte cell proliferation: G0/G1 phase 10 days recovery + thymocyte cell proliferation: G1/2 phase 2 …",0.02%
same,LOEL,[5],0.01%
same,NOEL,[5],0.003%
same,LOEL,[6],0.01%
same,NOEL,[6],0.005%
same,NOEL,"duration: 10 days, oral, drinking water, F, C57BL/6, spleen B220+ cells + spleen: spleen CD4+ cells + spleen: spleen CD8+ cells + spleen: spleen cellularity + spleen: spleen DN (CD4-/CD8-) …",7.5 mg/kg-day
same,NOEL,"duration: 10 days, oral, gavage, F, C57BL/6, IgG antibody titer (SRBC) + spleen: spleen: absolute weight + spleen: spleen: relative weight + thymus: thymus: absolute weight + thymus: …",30 mg/kg-day
same,LOEL,"duration: 10 days, oral, gavage, F, C57BL/6, IgM antibody titer (SRBC) + spleen: spleen: absolute weight + spleen: spleen: relative weight + thymus: thymus: absolute weight + thymus: …",30 mg/kg-day
same,NOEL,"duration: 13 days, oral, drinking water, F, C57BL/6, spleen: spleen B220+ cells + spleen: spleen CD4+ cells + spleen: spleen cellularity + spleen: spleen DP (CD4+/CD8+) cells + spleen: spleen …",7.5 mg/kg-day
